ChEMBL document CHEMBL5390261, “Agents for the Treatment of Gout: Current Advances and Future Perspectives” (J Med Chem, 2023)
Blank lines part the entries; values can stand above or below the molecule they belong to.

How the values were obtained:
[1] = molecular target: T1, Xanthine dehydrogenase/oxidase (Homo sapiens, UniProt P47989); test: Inhibition of XO (unknown origin) using xanthine as substrate assessed as reduction in uric acid formation by double beam spectrophotometric analysis
[2] = molecular target: T1, Xanthine dehydrogenase/oxidase; test: Inhibition of XO (unknown origin) by microtitre plate analysis
[3] = molecular target: Xanthine dehydrogenase/oxidase (Bos taurus, UniProt P80457); test: Inhibition of Bovine milk xanthine oxidase using xanthine as substrate assessed as decrease in uric acid level preincubated for 5 mins followed by substrate addition by spectrophotometric analysis
Xanthine dehydrogenase/oxidase (Bos taurus, UniProt P80457), sequence (P80457 whole entry): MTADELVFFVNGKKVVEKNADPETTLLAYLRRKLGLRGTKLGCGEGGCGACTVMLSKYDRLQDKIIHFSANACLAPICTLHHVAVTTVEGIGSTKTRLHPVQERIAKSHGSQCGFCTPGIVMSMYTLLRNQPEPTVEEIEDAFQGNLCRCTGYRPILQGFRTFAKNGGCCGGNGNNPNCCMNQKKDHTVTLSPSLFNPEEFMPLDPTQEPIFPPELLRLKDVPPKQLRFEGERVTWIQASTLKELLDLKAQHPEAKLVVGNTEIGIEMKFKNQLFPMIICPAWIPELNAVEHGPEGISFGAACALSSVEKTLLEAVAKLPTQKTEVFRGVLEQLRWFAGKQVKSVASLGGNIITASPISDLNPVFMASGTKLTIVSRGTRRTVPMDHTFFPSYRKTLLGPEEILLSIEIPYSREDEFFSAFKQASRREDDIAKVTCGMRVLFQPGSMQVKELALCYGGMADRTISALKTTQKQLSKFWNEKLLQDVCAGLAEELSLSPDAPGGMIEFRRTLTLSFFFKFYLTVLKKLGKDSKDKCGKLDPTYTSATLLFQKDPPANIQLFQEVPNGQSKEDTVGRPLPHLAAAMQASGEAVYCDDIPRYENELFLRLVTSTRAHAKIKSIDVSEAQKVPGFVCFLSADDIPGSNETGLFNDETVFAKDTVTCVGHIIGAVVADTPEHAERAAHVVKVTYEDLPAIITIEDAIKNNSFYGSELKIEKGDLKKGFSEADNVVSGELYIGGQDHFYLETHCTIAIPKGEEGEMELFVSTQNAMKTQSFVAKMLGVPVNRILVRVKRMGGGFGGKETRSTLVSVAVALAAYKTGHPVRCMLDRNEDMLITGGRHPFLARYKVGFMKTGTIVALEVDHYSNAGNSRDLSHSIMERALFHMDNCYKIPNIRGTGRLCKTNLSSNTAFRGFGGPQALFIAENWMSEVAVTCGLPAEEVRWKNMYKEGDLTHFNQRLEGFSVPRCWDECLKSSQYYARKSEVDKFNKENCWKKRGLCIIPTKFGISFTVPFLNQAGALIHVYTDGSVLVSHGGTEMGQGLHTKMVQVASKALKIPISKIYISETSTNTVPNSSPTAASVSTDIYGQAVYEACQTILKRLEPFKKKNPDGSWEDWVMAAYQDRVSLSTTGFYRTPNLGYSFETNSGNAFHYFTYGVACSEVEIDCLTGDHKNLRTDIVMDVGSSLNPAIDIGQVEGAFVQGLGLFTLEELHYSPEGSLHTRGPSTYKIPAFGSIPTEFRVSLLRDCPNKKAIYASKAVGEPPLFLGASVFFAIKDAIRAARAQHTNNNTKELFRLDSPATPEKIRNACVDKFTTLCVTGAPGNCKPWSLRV

[4] = molecular target: T1, Xanthine dehydrogenase/oxidase; test: Inhibition of XO (unknown origin) using xanthine as substrate preincubated for 3 hrs followed by substrate addition by UV-Vis spectrophotometric analysis
[5] = molecular target: T1, Xanthine dehydrogenase/oxidase; test: Inhibition of XO (unknown origin)
[6] = molecular target: T1, Xanthine dehydrogenase/oxidase; test: Inhibition of XO (unknown origin) using xanthine as substrate assessed as reduction in uric acid formation by FluoSTAR OPTIMA plate reader analysis

T1 sequence (P47989 whole entry): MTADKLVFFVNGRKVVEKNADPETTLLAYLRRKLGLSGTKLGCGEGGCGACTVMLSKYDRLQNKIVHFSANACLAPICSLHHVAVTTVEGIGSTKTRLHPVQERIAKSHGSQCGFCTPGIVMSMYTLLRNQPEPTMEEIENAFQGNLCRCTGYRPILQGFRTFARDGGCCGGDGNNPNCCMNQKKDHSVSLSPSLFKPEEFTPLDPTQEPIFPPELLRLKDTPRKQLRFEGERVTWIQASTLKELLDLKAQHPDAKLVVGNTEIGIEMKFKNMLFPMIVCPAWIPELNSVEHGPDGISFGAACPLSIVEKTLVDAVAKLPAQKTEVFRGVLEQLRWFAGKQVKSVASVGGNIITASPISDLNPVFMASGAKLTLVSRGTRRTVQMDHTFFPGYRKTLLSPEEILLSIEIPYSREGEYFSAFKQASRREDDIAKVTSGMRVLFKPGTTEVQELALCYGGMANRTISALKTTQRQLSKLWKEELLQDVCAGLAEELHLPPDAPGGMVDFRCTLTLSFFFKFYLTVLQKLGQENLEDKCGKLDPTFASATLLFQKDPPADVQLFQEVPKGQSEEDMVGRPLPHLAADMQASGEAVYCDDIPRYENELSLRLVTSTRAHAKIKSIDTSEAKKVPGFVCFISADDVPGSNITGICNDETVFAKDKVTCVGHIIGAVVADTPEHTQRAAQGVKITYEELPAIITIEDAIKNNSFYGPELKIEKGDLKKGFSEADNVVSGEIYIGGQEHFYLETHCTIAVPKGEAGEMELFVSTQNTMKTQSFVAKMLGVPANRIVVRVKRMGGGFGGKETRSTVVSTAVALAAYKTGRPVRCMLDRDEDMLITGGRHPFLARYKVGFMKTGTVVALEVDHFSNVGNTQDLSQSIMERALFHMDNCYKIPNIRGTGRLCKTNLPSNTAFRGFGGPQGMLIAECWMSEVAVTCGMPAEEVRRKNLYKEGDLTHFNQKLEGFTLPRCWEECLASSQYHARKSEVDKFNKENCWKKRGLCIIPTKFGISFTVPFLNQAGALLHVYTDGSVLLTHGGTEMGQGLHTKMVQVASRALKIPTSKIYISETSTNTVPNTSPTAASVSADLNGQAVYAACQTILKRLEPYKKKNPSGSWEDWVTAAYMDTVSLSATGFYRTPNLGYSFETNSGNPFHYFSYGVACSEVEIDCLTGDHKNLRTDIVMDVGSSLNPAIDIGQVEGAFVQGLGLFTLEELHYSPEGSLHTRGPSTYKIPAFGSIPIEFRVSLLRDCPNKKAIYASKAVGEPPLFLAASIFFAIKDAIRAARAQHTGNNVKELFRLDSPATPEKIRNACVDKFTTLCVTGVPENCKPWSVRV

Compound: O=c1oc2c(O)ccc(-c3oc4cc(O)cc(O)c4c(=O)c3O)c2s1
IC50 [1]: 50 nM

Compound: COc1cc(O)cc2c(=O)oc(O)c(C)c12
IC50 [2]: 2970 nM

Compound: O=c1oc2ccccc2c2c1C(c1cccs1)C=C(c1ccccc1)O2 (configuration not stated)
IC50 [3]: 2210 nM

Compound: O=c1cc(-c2ccccc2)oc2cc(O)cc(O)c12 [CHRYSIN]
IC50 [4]: 1260 nM

The next lines start with the values.

IC50 [2]: 42000 nM
Compound: O=c1ccc2cc(O)c(O)cc2o1 [ESCULETIN]

IC50 [5]: 3530 nM
Compound: O=c1c(-c2ccc(O)cc2)coc2cc(O)cc(O)c12 [GENISTEIN]

IC50 [6]: 840 nM
Compound: COc1ccc([C@@H]2CC(=O)c3c(O)cc(O)cc3O2)cc1O [HESPERETIN]
